Data: US9951049B2, “Pyrazole linked benzimidazole conjugates and a process for preparation thereof” (Council of Scientific & Industrial Reseach, priority 2014, dated 2018)

Columns and labels:
UACC-257 = assay: NCI SRB screen, UACC-257; conditions: Homo sapiens, UACC-257, 48 h, read-out: GI50 values
Melanoma cell lines = assay: NCI SRB screen, Melanoma panel average; conditions: Homo sapiens, 48 h, read-out: Log10 GI50 (converted)
SN12C = assay: NCI SRB screen, SN12C; conditions: Homo sapiens, 48 h, read-out: GI50 values
HCC-2998 = assay: NCI SRB screen, HCC-2998; conditions: Homo sapiens, HCC 2998, 48 h, read-out: GI50 values
U251 = assay: NCI SRB screen, U251; conditions: Homo sapiens, U-251, 48 h, read-out: GI50 values
NCIH322M = assay: NCI SRB screen, NCIH322M; conditions: Homo sapiens, NCI-H322M, 48 h, read-out: GI50 values
SK-MEL-5 = assay: NCI SRB screen, SK-MEL-5; conditions: Homo sapiens, SK-MEL-5, 48 h, read-out: GI50 values, Melanoma, SK-MEL-5
NCI/ADR-RES = assay: NCI SRB screen, NCI/ADR-RES; conditions: Homo sapiens, 48 h, read-out: GI50 values
HCT-15 = assay: NCI SRB screen, HCT-15; conditions: Homo sapiens, HCT-15, 48 h, read-out: GI50 values
UO-31 = assay: NCI SRB screen, UO-31; conditions: Homo sapiens, UO-31, 48 h, read-out: GI50 values
786-0 = assay: NCI SRB screen, 786-0; conditions: Homo sapiens, 786-0, 48 h, read-out: GI50 values
MCF7 = assay: NCI SRB screen, MCF7; conditions: Homo sapiens, MCF7, 48 h, read-out: GI50 values
A498 = assay: NCI SRB screen, A498; conditions: Homo sapiens, A498, 48 h, read-out: GI50 values
[1] = system: Non-small-cell lung cancer cell lines; assay: NCI SRB screen, Non-small-cell lung panel average; conditions: Homo sapiens, 48 h, read-out: Log10 GI50 (converted)
CAKI-1 = assay: NCI SRB screen, CAKI-1; conditions: Homo sapiens, CAKI-1, 48 h, read-out: GI50 values
SW-620 = assay: NCI SRB screen, SW-620; conditions: Homo sapiens, SW-620, 48 h, read-out: GI50 values
A549/ATCC = assay: NCI SRB screen, A549/ATCC; conditions: Homo sapiens, A549, 48 h, read-out: GI50 values
K-562 = assay: NCI SRB screen, K-562; conditions: Homo sapiens, K562, 48 h, read-out: GI50 values
OVCAR-8 = assay: NCI SRB screen, OVCAR-8; conditions: Homo sapiens, OVCAR-8, 48 h, read-out: GI50 values
Colon cancer cell lines = assay: NCI SRB screen, Colon panel average; conditions: Homo sapiens, 48 h, read-out: Log10 GI50 (converted)
SK-MEL-28 = assay: NCI SRB screen, SK-MEL-28; conditions: Homo sapiens, SK-MEL-28, 48 h, read-out: GI50 values
MDA-MB-231/ATCC = assay: NCI SRB screen, MDA-MB-231/ATCC; conditions: Homo sapiens, MDA-MB-231, 48 h, read-out: GI50 values
DU-145 = assay: NCI SRB screen, DU-145; conditions: Homo sapiens, DU-145, 48 h, read-out: GI50 values
Breast Cancer cell lines = assay: NCI SRB screen, Breast Cancer panel average; conditions: Homo sapiens, 48 h, read-out: Log10 GI50 (converted)
PC-3 = assay: NCI SRB screen, PC-3; conditions: Homo sapiens, PC-3, 48 h, read-out: GI50 values
HCT-116 = assay: NCI SRB screen, HCT-116; conditions: Homo sapiens, HCT-116, 48 h, read-out: GI50 values
MDA-MB-435 = assay: NCI SRB screen, MDA-MB-435 (Breast panel); conditions: Homo sapiens, MDA-MB-435, 48 h, read-out: GI50 values
HT29 = assay: NCI SRB screen, HT29; conditions: Homo sapiens, HT-29, 48 h, read-out: GI50 values
COLO-205 = assay: NCI SRB screen, COLO-205; conditions: Homo sapiens, COLO 205, 48 h, read-out: GI50 values
TK-10 = assay: NCI SRB screen, TK-10; conditions: Homo sapiens, TK-10, 48 h, read-out: GI50 values
OVCAR-4 = assay: NCI SRB screen, OVCAR-4; conditions: Homo sapiens, OVCAR-4, 48 h, read-out: GI50 values
NCI-H23 = assay: NCI SRB screen, NCI-H23; conditions: Homo sapiens, NCI-H23, 48 h, read-out: GI50 values

COc1cc(-c2cc(-c3nc4cc(Cl)ccc4[nH]3)[nH]n2)cc(OC)c1OC [8f, 5-chloro-2-(3-(3,4,5-trimethoxyphenyl)-1H-pyrazol-5-yl)-1H-benzo[d]imidazole] showed a GI50 (UACC-257) of 2.6 µM, a GI50 (Melanoma cell lines) of 2.45 µM and a GI50 (SN12C) of 3.06 µM. The GI50 (HCC-2998) was 5.98 µM, the GI50 (U251) was 3.38 µM and the GI50 (NCIH322M) was 3.65 µM. For the same molecule, the GI50 (SK-MEL-5) was 1.62 µM, the GI50 (NCI/ADR-RES) was 3.16 µM and the GI50 (HCT-15) was 2.9 µM. The GI50 (UO-31) was 2.64 µM, the GI50 (786-0) was 5.32 µM and the GI50 (MCF7) was 2.17 µM. It also gave a GI50 (A498) of 2.1 µM, a GI50 [1] of 2.75 µM and a GI50 (CAKI-1) of 2.8 µM. For the same molecule, the GI50 (SW-620) was 4.99 µM, the GI50 (A549/ATCC) was 2.96 µM and the GI50 (K-562) was 3.04 µM. For the same molecule, the GI50 (OVCAR-8) was 2.26 µM, the GI50 (Colon cancer cell lines) was 3.98 µM and the GI50 (SK-MEL-28) was 2.42 µM. It also gave a GI50 (MDA-MB-231/ATCC) of 3.94 µM, a GI50 (DU-145) of 3.27 µM and a GI50 (Breast Cancer cell lines) of 2.57 µM. It also gave a GI50 (PC-3) of 2.47 µM, a GI50 (HCT-116) of 3.45 µM and a GI50 (MDA-MB-435) of 2.33 µM. It also gave a GI50 (HT29) of 4.14 µM, a GI50 (COLO-205) of 3.18 µM and a GI50 (TK-10) of 3.52 µM. For the same molecule, the GI50 (OVCAR-4) was 1.38 µM and the GI50 (NCI-H23) was 2.73 µM.
With COc1cc(-c2cc(-c3nc4cc(Cl)c(Cl)cc4[nH]3)[nH]n2)cc(OC)c1OC [10f, 5,6-dichloro-2-(3-(3,4,5-trimethoxyphenyl)-1H-pyrazol-5-yl)-1H-benzo[d]imidazole] the GI50 (UACC-257) was 3.77 µM, the GI50 (Melanoma cell lines) was 2.82 µM and the GI50 (SN12C) was 3.05 µM. The GI50 (HCC-2998) was 4.47 µM, the GI50 (U251) was 2.97 µM and the GI50 (NCIH322M) was 3.29 µM. It also gave a GI50 (SK-MEL-5) of 1.56 µM, a GI50 (NCI/ADR-RES) of 3.25 µM and a GI50 (HCT-15) of 2.89 µM. The GI50 (UO-31) was 2.47 µM, the GI50 (786-0) was 4.09 µM and the GI50 (MCF7) was 2.79 µM. For the same molecule, the GI50 (A498) was 4.21 µM, the GI50 [1] was 2.95 µM and the GI50 (CAKI-1) was 3.81 µM. For the same molecule, the GI50 (SW-620) was 4.47 µM, the GI50 (A549/ATCC) was 2.87 µM and the GI50 (K-562) was 3.3 µM. It also gave a GI50 (OVCAR-8) of 2.51 µM, a GI50 (Colon cancer cell lines) of 3.63 µM and a GI50 (SK-MEL-28) of 3.07 µM. It also gave a GI50 (MDA-MB-231/ATCC) of 4.14 µM, a GI50 (DU-145) of 4.16 µM and a GI50 (Breast Cancer cell lines) of 3.16 µM. It also gave a GI50 (PC-3) of 2.2 µM, a GI50 (HCT-116) of 2.78 µM and a GI50 (MDA-MB-435) of 3.49 µM. For the same molecule, the GI50 (HT29) was 3.42 µM, the GI50 (COLO-205) was 3.77 µM and the GI50 (TK-10) was 4.61 µM. For the same molecule, the GI50 (OVCAR-4) was 2.21 µM and the GI50 (NCI-H23) was 3.4 µM.
